“Also recorded” adds a separate entry of the source.
What was measured:
rats [1] = experiment: Spontaneous activity (ambulatory and non-ambulatory movements) after icv administration, Example IV; assay type: in vivo, rat
Protocol: To determine the effect of TPI 1361-17 on spontaneous activity on rats, intraventricular cannulated rats were acclimatized to the testing situation. […] Ambulatory movements and non-ambulatory movements were monitored for 60 minutes upon administration of five nmol TPI 1361-17 or ACSF (FIGS. 4A, 4B).
For these experiments, ambulatory movements were recorded using a Hamilton-Kinder Activity Monitor (with the infrared beams in a 4×8 configured frame). Locomotion was quantified in transparent polycarbonate cages (32×26×20 cm) placed within the activity frames. Animal position was detected by two dimensional beam breaks. The ambulation was tabulated as a movement that results in the change of location. All other beam breaks are categorized as non-ambulatory, fine movement. Animals were acclimatized to the novel home cage-environment for 60 minutes before injection, then were removed, injected and immediately replaced in the same cage, and monitoring began. Locomotion was measured for 60 minutes after the ICV administration of either ACSF or 5 nmol TPI 1361-17.
For animal studies, adult male Sprague-Dawley rats weighing 200-300g were obtained from Charles River Laboratories (Wilmington, Mass.), bearing a 23-gauge stainless steel cannula placed into the right lateral ventricle. […]

rats [2] = experiment: Spontaneous food intake after icv administration, Example IV; assay type: in vivo, rat; details: 5 nmol icv
Protocol: To determine inhibitory effects of TPI 1361-17 on spontaneous food intake, TPI 1361-17 (5 nmol) was administered icv and food intake was measured 0.5 h, 1 h, 2 h, and 4 h after the injection. Food intake was quantified either at the start of either the dark phase, which is considered similar to natural conditions, or the light phase. To synchronize initiation of the food intake and to measure the efficiency of TPI 1361-17, rat food pellets were removed for different lengths of time before the injection. It was observed that TPI 1361-17 reduced spontaneous food intake of rats that have been fasted for 1 hr before the dark phase by 37%. This inhibitory effect was detected within the first 30 minutes of feeding and is not detected later (FIG. 6A).
The two groups of rats that were tested at the beginning of the dark phase were starved for 1 h or 4 h before, being injected with 5 nmol of antagonist or ACSF between 6:00-7:00 p.m. Animals had free access to water. Fifteen minutes after injection, container of regular low-fat diet were placed in the cage, and food consumption was monitored for 4 h. The group of rats that were injected at the beginning of the light phase was starved overnight before being injected at 5 nmol of antagonist or ACSF. Monitoring of the food consumption was identical to that described for the rats starved during the dark phase.
For animal studies, adult male Sprague-Dawley rats weighing 200-300g were obtained from Charles River Laboratories (Wilmington, Mass.), bearing a 23-gauge stainless steel cannula placed into the right lateral ventricle. Rats were housed individually and maintained on a 12 h light-dark cycle (6:00 am-6:00 pm light) with free access to tap water and rat chaw (PROLAB RMH 2500, containing 23.0% protein, 4.5% fat, gross energy 4.5 kcal/g. PMI nutrition international, LLC. Brentwood, Mo.). […]

C[C@@H](CNCc1ccccc1)N1C[C@H](CCCNC(=N)N)N(CCc2cccc(F)c2)C1=S [TPI 1361-17, N-(3-{(4S)-1-[(1S)-2-(benzylamino)-1-methylethyl]-3-[2-(3-fluorophenyl)ethyl]-2-thioxoimidazolidin-4-yl}propyl)guanidine]
Total amounts of non-ambulatory or ambulatory movements versus ACSF (rats [1]; 5 nmol icv, 60 minutes): no significant differences
Detectable changes in movement (rats [1]; five or one nmol icv): did not exhibit any detectable changes in movement; also recorded: did not affect locomotion or fine movements
Reduction of spontaneous food intake (rats [2]; fasted 1 hr before dark phase, first 30 minutes of feeding): 37%
Effect on spontaneous food intake (rats [2]; fasted 4 h before the dark phase): no apparent effect
Effect on spontaneous food intake (rats [2]; fasted 12 hrs before the light phase): no apparent effect

Reference: patent publication US8372848B2, “Melanin-concentrating hormone receptor antagonists and methods of use” (Mixture Sciences, Inc., priority 2004, dated 2013)
